What follows are compounds tested against T1, Raw264.7 p110 γ (Mus musculus, UniProt Q9JHG7) (assay: Raw264.7 p110 γ cellular assay (phospho-AKT)). Settings: serum-starved RAW264.7 cells stimulated with C5a.
T1 construct: reduction of phospho-AKT in stimulated RAW 264.7 cells; endogenous in cells; host or cells: RAW264.7 macrophages
Format: cell-based
Excerpt: (b) PI3K-γ Selective Assay
Briefly, serum-starved PAW264.7 cells are stimulated with a known GPCR agonist C5a. […] Cells can be treated with test compounds prior to, simultaneously with, or subsequent to the stimulation by C5a. RAW 264.7 cells respond to the complement component fragment C5a through activation of the C5a receptor, and the C5a receptor activates macrophages and induces cell migration.

Compound | IC50
C[C@H](NC(=O)c1nc(C#N)cnc1N)c1cc2cccc(Cl)c2c(=O)n1-c1ccccc1 [Compound 111] | 100 to 1000 nM
C[C@H](NC(=O)c1nc(-c2cccc(S(=O)(=O)NC3CC3)c2)cnc1N)c1cc2cccc(Cl)c2c(=O)n1C [Compound 194] | < 100 nM
C[C@H](NC(=O)c1nc(-c2cccc(NS(C)(=O)=O)c2)cnc1N)c1cc2cccc(Cl)c2c(=O)n1-c1ccccc1 [Compound 85] | < 100 nM
C=CC(=O)NCCC#Cc1cccc2cc([C@H](C)NC(=O)c3c(N)nn4cccnc34)n(-c3ccccc3)c(=O)c12 [Compound 160] | < 100 nM
C[C@H](NC(=O)c1c(N)nn2cccnc12)c1c(C#N)c2cccc(F)c2c(=O)n1-c1ccccc1 [Compound 269] | < 100 nM

Next, values leading:

IC50 | Compound
< 100 nM | C[C@H](NC(=O)c1c(N)ncc2cccnc12)c1cc2cccc(N3CCOCC3)c2c(=O)n1-c1ccccc1 [Compound 214]
< 100 nM | COc1cc(-c2cccc3cc([C@H](C)NC(=O)c4c(N)nn5cccnc45)n(-c4ccccc4)c(=O)c23)ccn1 [Compound 116]
< 100 nM | COc1cncc(-c2cccc3cc([C@H](C)NC(=O)c4c(N)nn5cccnc45)n(-c4ccccc4)c(=O)c23)c1 [Compound 119]

What follows are compounds tested against T2, PI3K γ (Homo sapiens, UniProt P48736) (assay: PI3-Kinase Promega ADP-Glo Max assay). Settings: 40 nM kinase, 3 mM ATP, 500 uM diC8-PtdInsP.
T2 construct: purchased Millipore
T2 sequence (P48736 whole entry): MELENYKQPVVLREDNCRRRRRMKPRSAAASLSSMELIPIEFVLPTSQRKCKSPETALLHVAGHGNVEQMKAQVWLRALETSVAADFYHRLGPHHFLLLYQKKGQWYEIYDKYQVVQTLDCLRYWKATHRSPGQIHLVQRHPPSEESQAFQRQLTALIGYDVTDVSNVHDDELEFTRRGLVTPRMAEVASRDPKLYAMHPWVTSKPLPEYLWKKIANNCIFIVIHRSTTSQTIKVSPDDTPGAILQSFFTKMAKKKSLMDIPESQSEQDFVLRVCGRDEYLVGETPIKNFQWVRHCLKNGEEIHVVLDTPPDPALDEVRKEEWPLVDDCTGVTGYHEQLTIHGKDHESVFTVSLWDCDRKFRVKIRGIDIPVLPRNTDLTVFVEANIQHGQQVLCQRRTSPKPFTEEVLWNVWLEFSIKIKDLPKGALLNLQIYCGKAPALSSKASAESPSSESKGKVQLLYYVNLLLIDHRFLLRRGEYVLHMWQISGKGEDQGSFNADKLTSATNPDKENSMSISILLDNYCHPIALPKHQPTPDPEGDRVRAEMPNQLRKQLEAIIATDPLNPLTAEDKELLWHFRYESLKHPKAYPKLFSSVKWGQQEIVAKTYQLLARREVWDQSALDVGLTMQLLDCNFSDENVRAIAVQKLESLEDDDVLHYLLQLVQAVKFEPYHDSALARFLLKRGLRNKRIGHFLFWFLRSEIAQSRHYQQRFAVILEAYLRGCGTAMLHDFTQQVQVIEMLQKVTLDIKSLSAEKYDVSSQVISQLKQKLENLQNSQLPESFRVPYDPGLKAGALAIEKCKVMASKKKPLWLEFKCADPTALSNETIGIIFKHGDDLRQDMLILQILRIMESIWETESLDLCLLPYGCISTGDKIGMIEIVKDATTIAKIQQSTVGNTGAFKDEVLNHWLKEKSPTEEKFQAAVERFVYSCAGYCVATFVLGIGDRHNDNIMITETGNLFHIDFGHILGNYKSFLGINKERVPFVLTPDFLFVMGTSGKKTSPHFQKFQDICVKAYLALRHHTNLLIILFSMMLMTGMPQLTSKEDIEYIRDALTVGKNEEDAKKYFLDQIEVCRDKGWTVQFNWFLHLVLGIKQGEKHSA
Format: biochemical
Summary of the method: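 Human class I PI3K reactions ran 2 hours at room temperature, followed by stop solution (40 min) and detection mix (1 hour) before luminescence reading.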

Compound | IC50
C[C@H](NC(=O)c1nc(C#N)cnc1N)c1cc2cccc(Cl)c2c(=O)n1-c1ccccc1 [Compound 111] | 100 to 1000 nM
C[C@H](NC(=O)c1nc(-c2cccc(S(=O)(=O)NC3CC3)c2)cnc1N)c1cc2cccc(Cl)c2c(=O)n1C [Compound 194] | < 100 nM
C[C@H](NC(=O)c1nc(-c2cccc(NS(C)(=O)=O)c2)cnc1N)c1cc2cccc(Cl)c2c(=O)n1-c1ccccc1 [Compound 85] | < 100 nM
C=CC(=O)NCCC#Cc1cccc2cc([C@H](C)NC(=O)c3c(N)nn4cccnc34)n(-c3ccccc3)c(=O)c12 [Compound 160] | 100 to 1000 nM
C[C@H](NC(=O)c1c(N)nn2cccnc12)c1c(C#N)c2cccc(F)c2c(=O)n1-c1ccccc1 [Compound 269] | 100 to 1000 nM

Other lines, results leading:

IC50 | Compound
100 to 1000 nM | C[C@H](NC(=O)c1c(N)ncc2cccnc12)c1cc2cccc(N3CCOCC3)c2c(=O)n1-c1ccccc1 [Compound 214]
100 to 1000 nM | COc1cc(-c2cccc3cc([C@H](C)NC(=O)c4c(N)nn5cccnc45)n(-c4ccccc4)c(=O)c23)ccn1 [Compound 116]
< 100 nM | COc1cncc(-c2cccc3cc([C@H](C)NC(=O)c4c(N)nn5cccnc45)n(-c4ccccc4)c(=O)c23)c1 [Compound 119]

Each compound was assayed against T3, PI3K δ (Homo sapiens, UniProt O00329) (assay: PI3-Kinase Promega ADP-Glo Max assay). Settings: 20 nM kinase, 3 mM ATP, 500 uM diC8-PtdInsP.
T3 construct: purchased Millipore
Format: biochemical
Summary of the method: (§1)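 Human class I PI3K (20 nM α or δ, 40 nM β) pre-incubated 15 min with compound in HEPES pH 7.4 buffer with MgCl2, then reacted 2 h at room temperature with 3 mM ATP and 500 uM diC8-PtdInsP. ADP measured by ADP-Glo Max luminescence; % inhibition fitted to 4-parameter logistic for IC50.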

Compound | IC50
C[C@H](NC(=O)c1nc(C#N)cnc1N)c1cc2cccc(Cl)c2c(=O)n1-c1ccccc1 [Compound 111] | 100 to 1000 nM
C[C@H](NC(=O)c1nc(-c2cccc(S(=O)(=O)NC3CC3)c2)cnc1N)c1cc2cccc(Cl)c2c(=O)n1C [Compound 194] | 100 to 1000 nM
C[C@H](NC(=O)c1nc(-c2cccc(NS(C)(=O)=O)c2)cnc1N)c1cc2cccc(Cl)c2c(=O)n1-c1ccccc1 [Compound 85] | 1000 to 10000 nM
C=CC(=O)NCCC#Cc1cccc2cc([C@H](C)NC(=O)c3c(N)nn4cccnc34)n(-c3ccccc3)c(=O)c12 [Compound 160] | 1000 to 10000 nM
C[C@H](NC(=O)c1c(N)nn2cccnc12)c1c(C#N)c2cccc(F)c2c(=O)n1-c1ccccc1 [Compound 269] | 100 to 1000 nM

Second part, the compound after the results:

IC50 | Compound
1000 to 10000 nM | C[C@H](NC(=O)c1c(N)ncc2cccnc12)c1cc2cccc(N3CCOCC3)c2c(=O)n1-c1ccccc1 [Compound 214]
1000 to 10000 nM | COc1cc(-c2cccc3cc([C@H](C)NC(=O)c4c(N)nn5cccnc45)n(-c4ccccc4)c(=O)c23)ccn1 [Compound 116]
100 to 1000 nM | COc1cncc(-c2cccc3cc([C@H](C)NC(=O)c4c(N)nn5cccnc45)n(-c4ccccc4)c(=O)c23)c1 [Compound 119]

The compounds below were run against T4, PI3K α (Homo sapiens, UniProt P42336) (assay: PI3-Kinase Promega ADP-Glo Max assay). Settings: 20 nM kinase, 3 mM ATP, 500 uM diC8-PtdInsP.
T4 construct: purchased Millipore
T4 sequence (P42336 whole entry): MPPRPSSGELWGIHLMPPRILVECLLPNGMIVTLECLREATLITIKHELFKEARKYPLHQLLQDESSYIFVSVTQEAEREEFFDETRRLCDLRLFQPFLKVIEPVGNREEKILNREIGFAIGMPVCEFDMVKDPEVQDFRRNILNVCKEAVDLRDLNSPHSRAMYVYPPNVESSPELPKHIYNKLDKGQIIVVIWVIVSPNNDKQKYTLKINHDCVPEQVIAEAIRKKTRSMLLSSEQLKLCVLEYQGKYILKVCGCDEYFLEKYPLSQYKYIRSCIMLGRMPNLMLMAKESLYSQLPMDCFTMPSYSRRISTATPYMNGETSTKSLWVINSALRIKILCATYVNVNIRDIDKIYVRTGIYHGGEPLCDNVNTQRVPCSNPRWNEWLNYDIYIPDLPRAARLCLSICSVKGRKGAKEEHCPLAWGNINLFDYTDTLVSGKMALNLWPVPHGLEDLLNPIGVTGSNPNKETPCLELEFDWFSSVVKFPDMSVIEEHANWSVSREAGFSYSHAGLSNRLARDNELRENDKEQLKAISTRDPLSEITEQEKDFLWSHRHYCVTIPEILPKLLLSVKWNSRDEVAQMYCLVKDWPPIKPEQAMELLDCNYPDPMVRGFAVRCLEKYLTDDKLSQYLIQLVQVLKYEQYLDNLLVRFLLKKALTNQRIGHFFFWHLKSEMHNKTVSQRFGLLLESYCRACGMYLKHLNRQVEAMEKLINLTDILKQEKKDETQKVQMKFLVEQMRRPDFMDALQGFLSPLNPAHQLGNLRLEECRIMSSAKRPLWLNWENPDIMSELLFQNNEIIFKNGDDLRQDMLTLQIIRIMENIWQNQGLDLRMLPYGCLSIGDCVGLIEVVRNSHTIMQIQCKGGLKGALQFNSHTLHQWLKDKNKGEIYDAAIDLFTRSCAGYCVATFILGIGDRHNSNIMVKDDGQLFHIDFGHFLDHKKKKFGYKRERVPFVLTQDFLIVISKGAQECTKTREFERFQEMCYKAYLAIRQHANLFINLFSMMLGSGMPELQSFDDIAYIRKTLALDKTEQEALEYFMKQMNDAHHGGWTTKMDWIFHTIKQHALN
T4 sequence (P27986 whole entry partner): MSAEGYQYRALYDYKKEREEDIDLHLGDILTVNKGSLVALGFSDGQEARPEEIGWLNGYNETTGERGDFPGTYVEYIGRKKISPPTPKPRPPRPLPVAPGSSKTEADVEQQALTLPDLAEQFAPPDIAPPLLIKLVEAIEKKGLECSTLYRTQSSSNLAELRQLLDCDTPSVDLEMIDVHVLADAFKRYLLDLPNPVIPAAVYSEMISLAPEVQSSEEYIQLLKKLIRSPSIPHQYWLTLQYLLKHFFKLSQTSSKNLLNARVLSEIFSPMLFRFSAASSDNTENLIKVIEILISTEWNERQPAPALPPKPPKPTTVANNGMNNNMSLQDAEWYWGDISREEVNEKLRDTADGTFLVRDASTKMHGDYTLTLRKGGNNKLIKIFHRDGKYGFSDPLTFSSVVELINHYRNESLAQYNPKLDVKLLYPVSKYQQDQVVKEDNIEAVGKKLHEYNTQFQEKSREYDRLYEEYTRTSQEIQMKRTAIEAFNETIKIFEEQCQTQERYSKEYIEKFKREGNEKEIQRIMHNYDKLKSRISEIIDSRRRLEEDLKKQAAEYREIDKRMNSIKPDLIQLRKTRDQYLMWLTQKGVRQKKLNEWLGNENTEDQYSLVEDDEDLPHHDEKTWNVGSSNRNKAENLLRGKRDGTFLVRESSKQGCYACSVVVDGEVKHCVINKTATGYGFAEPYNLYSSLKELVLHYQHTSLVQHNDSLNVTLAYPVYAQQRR
Format: biochemical
Summary of the method: as §1

Compound | IC50
C[C@H](NC(=O)c1nc(C#N)cnc1N)c1cc2cccc(Cl)c2c(=O)n1-c1ccccc1 [Compound 111] | > 10000 nM
C[C@H](NC(=O)c1nc(-c2cccc(S(=O)(=O)NC3CC3)c2)cnc1N)c1cc2cccc(Cl)c2c(=O)n1C [Compound 194] | 100 to 1000 nM
C[C@H](NC(=O)c1nc(-c2cccc(NS(C)(=O)=O)c2)cnc1N)c1cc2cccc(Cl)c2c(=O)n1-c1ccccc1 [Compound 85] | 1000 to 10000 nM
C=CC(=O)NCCC#Cc1cccc2cc([C@H](C)NC(=O)c3c(N)nn4cccnc34)n(-c3ccccc3)c(=O)c12 [Compound 160] | 1000 to 10000 nM
C[C@H](NC(=O)c1c(N)nn2cccnc12)c1c(C#N)c2cccc(F)c2c(=O)n1-c1ccccc1 [Compound 269] | 1000 to 10000 nM

Next, values leading:

IC50 | Compound
> 10000 nM | C[C@H](NC(=O)c1c(N)ncc2cccnc12)c1cc2cccc(N3CCOCC3)c2c(=O)n1-c1ccccc1 [Compound 214]
1000 to 10000 nM | COc1cc(-c2cccc3cc([C@H](C)NC(=O)c4c(N)nn5cccnc45)n(-c4ccccc4)c(=O)c23)ccn1 [Compound 116]
1000 to 10000 nM | COc1cncc(-c2cccc3cc([C@H](C)NC(=O)c4c(N)nn5cccnc45)n(-c4ccccc4)c(=O)c23)c1 [Compound 119]

Each compound was assayed against T5, PI3K β (Homo sapiens, UniProt P42338) (assay: PI3-Kinase Promega ADP-Glo Max assay). Settings: 40 nM kinase, 3 mM ATP, 500 uM diC8-PtdInsP.
T5 construct: purchased Millipore
T5 sequence (P42338 whole entry): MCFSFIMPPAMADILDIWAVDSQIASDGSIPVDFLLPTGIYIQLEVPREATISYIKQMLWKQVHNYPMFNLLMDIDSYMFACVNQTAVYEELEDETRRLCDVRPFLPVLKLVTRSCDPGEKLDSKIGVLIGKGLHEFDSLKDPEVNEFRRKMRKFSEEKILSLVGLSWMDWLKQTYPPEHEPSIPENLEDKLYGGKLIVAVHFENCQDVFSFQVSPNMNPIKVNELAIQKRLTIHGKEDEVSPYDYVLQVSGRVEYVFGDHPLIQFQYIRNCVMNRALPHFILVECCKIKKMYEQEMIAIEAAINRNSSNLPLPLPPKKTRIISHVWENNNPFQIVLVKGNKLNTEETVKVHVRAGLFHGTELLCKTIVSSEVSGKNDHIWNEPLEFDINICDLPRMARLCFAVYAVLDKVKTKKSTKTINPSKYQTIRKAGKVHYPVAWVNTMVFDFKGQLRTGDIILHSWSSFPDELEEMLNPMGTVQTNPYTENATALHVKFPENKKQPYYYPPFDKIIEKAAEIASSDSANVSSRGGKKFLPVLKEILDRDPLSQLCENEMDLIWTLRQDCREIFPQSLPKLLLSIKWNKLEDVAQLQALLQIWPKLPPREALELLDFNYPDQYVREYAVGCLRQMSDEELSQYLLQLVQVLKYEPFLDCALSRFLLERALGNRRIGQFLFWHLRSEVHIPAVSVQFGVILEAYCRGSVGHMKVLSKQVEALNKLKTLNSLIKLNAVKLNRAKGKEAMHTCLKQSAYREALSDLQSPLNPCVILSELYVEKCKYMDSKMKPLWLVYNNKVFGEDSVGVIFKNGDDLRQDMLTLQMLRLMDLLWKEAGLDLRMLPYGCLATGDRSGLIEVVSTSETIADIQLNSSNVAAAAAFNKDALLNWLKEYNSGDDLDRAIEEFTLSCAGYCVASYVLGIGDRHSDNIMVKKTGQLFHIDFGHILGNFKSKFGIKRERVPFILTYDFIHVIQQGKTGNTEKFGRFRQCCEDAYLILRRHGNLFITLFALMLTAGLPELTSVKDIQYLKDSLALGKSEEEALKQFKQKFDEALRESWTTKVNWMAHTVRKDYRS
T5 sequence (P27986 whole entry partner): as the sequence (P27986 whole entry partner) above
Format: biochemical
Summary of the method: as §1

Compound | IC50
C[C@H](NC(=O)c1nc(C#N)cnc1N)c1cc2cccc(Cl)c2c(=O)n1-c1ccccc1 [Compound 111] | 100 to 1000 nM
C[C@H](NC(=O)c1nc(-c2cccc(S(=O)(=O)NC3CC3)c2)cnc1N)c1cc2cccc(Cl)c2c(=O)n1C [Compound 194] | < 100 nM
C[C@H](NC(=O)c1nc(-c2cccc(NS(C)(=O)=O)c2)cnc1N)c1cc2cccc(Cl)c2c(=O)n1-c1ccccc1 [Compound 85] | 100 to 1000 nM
C=CC(=O)NCCC#Cc1cccc2cc([C@H](C)NC(=O)c3c(N)nn4cccnc34)n(-c3ccccc3)c(=O)c12 [Compound 160] | 1000 to 10000 nM
C[C@H](NC(=O)c1c(N)nn2cccnc12)c1c(C#N)c2cccc(F)c2c(=O)n1-c1ccccc1 [Compound 269] | 100 to 1000 nM

The remaining lines, values ahead:

IC50 | Compound
> 10000 nM | C[C@H](NC(=O)c1c(N)ncc2cccnc12)c1cc2cccc(N3CCOCC3)c2c(=O)n1-c1ccccc1 [Compound 214]
1000 to 10000 nM | COc1cc(-c2cccc3cc([C@H](C)NC(=O)c4c(N)nn5cccnc45)n(-c4ccccc4)c(=O)c23)ccn1 [Compound 116]
> 10000 nM | COc1cncc(-c2cccc3cc([C@H](C)NC(=O)c4c(N)nn5cccnc45)n(-c4ccccc4)c(=O)c23)c1 [Compound 119]

The compounds below were run against RAJI p110 δ (Homo sapiens, UniProt O00329) (assay: RAJI p110 δ cellular assay (phospho-AKT)). Settings: not given.
Chain of RAJI p110 δ (O00329 whole entry): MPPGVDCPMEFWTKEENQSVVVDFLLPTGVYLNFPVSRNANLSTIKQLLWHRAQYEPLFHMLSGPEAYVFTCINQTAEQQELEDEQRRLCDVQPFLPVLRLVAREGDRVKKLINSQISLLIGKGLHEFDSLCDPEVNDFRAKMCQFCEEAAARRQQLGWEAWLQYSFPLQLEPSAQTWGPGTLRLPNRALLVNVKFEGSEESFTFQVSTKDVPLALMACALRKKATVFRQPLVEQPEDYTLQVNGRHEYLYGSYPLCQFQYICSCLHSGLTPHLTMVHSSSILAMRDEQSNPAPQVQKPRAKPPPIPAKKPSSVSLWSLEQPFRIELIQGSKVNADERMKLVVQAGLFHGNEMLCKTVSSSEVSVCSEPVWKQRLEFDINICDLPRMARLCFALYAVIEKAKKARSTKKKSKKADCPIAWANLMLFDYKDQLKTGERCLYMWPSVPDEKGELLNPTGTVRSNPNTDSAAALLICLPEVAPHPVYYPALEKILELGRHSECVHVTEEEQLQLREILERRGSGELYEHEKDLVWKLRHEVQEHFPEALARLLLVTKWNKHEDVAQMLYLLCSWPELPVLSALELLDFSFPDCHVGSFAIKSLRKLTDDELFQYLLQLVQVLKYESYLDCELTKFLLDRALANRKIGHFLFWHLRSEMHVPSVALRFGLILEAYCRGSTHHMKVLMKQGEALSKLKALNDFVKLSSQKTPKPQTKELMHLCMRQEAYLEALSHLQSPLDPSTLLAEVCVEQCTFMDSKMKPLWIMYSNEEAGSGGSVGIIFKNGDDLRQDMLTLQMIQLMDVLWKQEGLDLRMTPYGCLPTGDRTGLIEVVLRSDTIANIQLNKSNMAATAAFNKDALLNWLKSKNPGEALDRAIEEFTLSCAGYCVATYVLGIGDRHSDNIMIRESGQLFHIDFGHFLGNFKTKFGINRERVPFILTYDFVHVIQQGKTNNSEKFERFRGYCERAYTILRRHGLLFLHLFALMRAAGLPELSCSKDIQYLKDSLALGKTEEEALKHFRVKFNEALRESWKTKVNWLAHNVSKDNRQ
Chain of RAJI p110 δ (P27986 whole entry partner): as the sequence (P27986 whole entry partner) above

Compound | IC50
C[C@H](NC(=O)c1nc(C#N)cnc1N)c1cc2cccc(Cl)c2c(=O)n1-c1ccccc1 [Compound 111] | < 100 nM
C[C@H](NC(=O)c1nc(-c2cccc(S(=O)(=O)NC3CC3)c2)cnc1N)c1cc2cccc(Cl)c2c(=O)n1C [Compound 194] | < 100 nM
C[C@H](NC(=O)c1nc(-c2cccc(NS(C)(=O)=O)c2)cnc1N)c1cc2cccc(Cl)c2c(=O)n1-c1ccccc1 [Compound 85] | < 100 nM
C=CC(=O)NCCC#Cc1cccc2cc([C@H](C)NC(=O)c3c(N)nn4cccnc34)n(-c3ccccc3)c(=O)c12 [Compound 160] | < 100 nM
C[C@H](NC(=O)c1c(N)nn2cccnc12)c1c(C#N)c2cccc(F)c2c(=O)n1-c1ccccc1 [Compound 269] | < 100 nM

Now from value to compound:

IC50 | Compound
< 100 nM | C[C@H](NC(=O)c1c(N)ncc2cccnc12)c1cc2cccc(N3CCOCC3)c2c(=O)n1-c1ccccc1 [Compound 214]
< 100 nM | COc1cc(-c2cccc3cc([C@H](C)NC(=O)c4c(N)nn5cccnc45)n(-c4ccccc4)c(=O)c23)ccn1 [Compound 116]
< 100 nM | COc1cncc(-c2cccc3cc([C@H](C)NC(=O)c4c(N)nn5cccnc45)n(-c4ccccc4)c(=O)c23)c1 [Compound 119]

From patent publication US8940742B2, “Heterocyclic compounds and uses thereof” (Infinity Pharmaceuticals, Inc., priority 2012, dated 2015)
